Experimental data taken from publication PMC5650142, “GPR40 partial agonists and AgoPAMs: Differentiating effects on glucose and hormonal secretions in the rodent” (PLoS ONE, 2017).
Where “and” joins values, the source holds several entries; their conditions need not be identical. Equal entries are not always repeated.

Test system: GK rats
Assay: GK rat chronic efficacy (28 days: glucose, food intake, body weight, GLP-1, GIP, PYY, insulin, glucagon)
Format: in vivo
Design: Food Intake Over Time (Fig 3C) / Total Body Weight Change Over Time / Active GLP-1 Levels Over Time: unit not given here
Conditions: for Total Body Weight Change Over Time / Active GLP-1 Levels Over Time / GIP Levels Over Time / PYY Levels Over Time / Plasma Insulin Over Time: GK rats
Experimental: At the start of the study, fed (ambient) blood glucose was measured via glucometer at 1 h post lights on, and animals were selected and sorted into treatment groups based on ambient glucose (n = 10/ GK group, n = 6 WKY control). Blood for baseline incretin measurements was collected in the PM via tail vein. Rats were dosed via oral gavage (PO) at a volume of 5 ml/kg daily at approximately 12:30 PM with either vehicle (0.5% methylcellulose), AP1 at 30 mg/kg, or AP3 at 30 mg/kg. MK-8666, a GPR40 partial agonist synthesized at Merck & Co., Inc., Kenilworth, NJ USA [13], at 30 mg/kg was administered in feed (Research Diets, New Brunswick, NJ) and provided ad lib. All compounds were administered to achieve maximal efficacious exposures determined in acute efficacy studies similar to those acute studies described above. In brief, partial agonists and AgoPAMs were titrated in the acute GK rat experiment described above and the exposure associated with maximal efficacy in glucose lowering was noted. Partial agonists and AgoPAMs were then dosed to maintain those exposures up to 24h post dose. […] Rats from this group and the WKY controls were administered vehicle PO when the vehicle, AP1, and AP3 groups were treated. Fed blood glucose, food intake, and body weights were determined on days 10, 17, 23, and 28 of study at 2 h post lights on. Immediately after these measures were taken on days 10, 17, 23, and 28, food was removed. After 5h of fasting, animals were dosed with vehicle or compound and allowed to rest for an additional hour. Glucose, GLP-1, GIP, and PYY were measured after 6h of fasting at 1 hr post dose. Fed blood glucose is described by animals having had ad libidum access to feed up till the time of sampling and occurred at 2h post-lights on where rats were nearing the end of their nocturnal feeding cycle. Fasted blood glucose is described by blood glucose sampled after 6h of fasting where food was removed at 2h post lights on. Please note that the fasted sample was taken 1h post oral dosing. On day 10, blood was collected from the tail vein (20 μl) after morning glucose measures and after 6 hour fast from a subset of n = 3 rats per treatment group to determine the fed and fasted exposure of the compounds in circulation. The blood was stored at 4°C in 0.1 M sodium citrate for subsequent analysis of drug exposure.
Blood for insulin, glucagon, GLP-1, GIP, and PYY measurements was collected into K2EDTA Microtainer tubes (BD, Franklin Lakes, NJ) pre-treated with DPP4 inhibitor (Millipore, Billerica, MA) and cOmplete™ Protease Inhibitor Cocktail Tablets (Roche Diagnostics, Indianapolis, IN). Tubes were centrifuged for 10 minutes at 5000 RPM, and plasma was aliquotted for analysis. Plasma insulin levels were measured via EIA (Mesoscale Discovery ELISA Kit, Gaithersburg MD). Rat plasma total GLP-1 was measured using Total GLP-1 (ver.2) Assay Kit (Cat#: K150JVC). The measurement of active GLP-1 was carried out in a similar manner as that described for total GLP-1 assay with the exception that MSD Active GLP-1 (ver. 2) assay kit (Cat# K150JWC) was used. Rat plasma glucagon was measured using an in-house glucagon assay developed as a MSD format sandwich immunoassay (Merck & Co., Inc., MRL, Kenilworth, NJ USA). The antibody specificity was cross validated via mass- spec using procedures described in Lee et al. Briefly, MSD Streptavidin Gold plates were coated with 2 μg/ml biotin mouse monoclonal antibody generated to glucagon. Test samples were added to the plates and a separate Sulfo- tagged monoclonal antibody was used to detect the captured glucagon protein (2 μg/ml). The ELISA was carried out in the standard reagents in the MSD format. The plate was read on the SECTOR Imager 6000 Reader. Metabolic hormones GIP (Gastric Inhibitory Polypeptide) and PYY (Peptide YY) were measured in rat plasma using the Rat Metabolic Magnetic Bead Panel (EMD Millipore, Billerica, MA). The assay was performed according to manufacturer protocol. […]

## COc1ccc(F)c(-c2ccc([C@@H]3CCc4ccc([C@H](C5CC5)[C@H](C)C(=O)O)cc4O3)cc2)c1 [AP1]
30 mpk, Day 10
  Food Intake Over Time (Fig 3C): 14.85 and 15.61 and 15.57 and 15.255 and 16.22
30 mpk, Day 17
  Food Intake Over Time (Fig 3C): 15.5286 and 15.8857 and 16.0214 and 17.2929 and 17.7357
30 mpk, Day 23
  Food Intake Over Time (Fig 3C): 16.8417 and 19.1417 and 18.7583 and 18.725 and 18.4
30 mpk, Day 28
  Food Intake Over Time (Fig 3C): 16.96 and 17.9 and 19.14 and 19.07 and 19.25
30 mpk, day 28, fed, individual animals
  Fed glucose on day 28 (Fig 3B): 126 and 113 and 121 and 107 and 114 and 98 and 108 and 105 and 131
GK rat, 30 mg/kg, day 28
  fed blood glucose vs partial agonist MK-8666: significantly reduced
30 mpk, Day 0, individual animals (Fig 3D)
  Total Body Weight Change Over Time: 0
30 mpk, Day 0, individual animals (Fig 4B), 30 mg/kg
  Active GLP-1 Levels Over Time: 1.001 and 1.9298 and 1.3237 and 1.012 and 1.8577 and 2.191 and 1.713 and 1.556 and 0.8866 and 1.073
30 mpk, Day 0, individual animals (Fig 4C), 30 mg/kg, in pg/mL (unit assumed)
  GIP Levels Over Time: 80.27 and 43.35 and 55.2 and 66.33 and 82.49 and 41.1 and 77.69 and 54.81 and 38.69 and 31.07
30 mpk, Day 0, individual animals (Fig 4D), 30 mg/kg
  PYY Levels Over Time: 60.82 and 59.71 and 48.43 and 38.89 and 91.83 and 69.38 and 126.38 and 46.38 (2×) and 80.42
30 mpk, Day 0, individual animals (Fig 5A), 30 mg/kg
  Plasma Insulin Over Time: 1.323 ng/mL and 1.278 ng/mL and 2.387 ng/mL and 1.318 ng/mL and 1.715 ng/mL and 1.561 ng/mL and 2.638 ng/mL and 2.341 ng/mL and 1.122 ng/mL and 2.349 ng/mL
30 mpk, Day 10, individual animals (Fig 3D), 30 mg/kg
  Total Body Weight Change Over Time: 10 and 3 (2×) and 13 and 6 and 2 (3×) and -13 and 5
30 mpk, Day 10, individual animals (Fig 4B), 30 mg/kg
  Active GLP-1 Levels Over Time: 10.3955 and 6.299 and 7.593 and 12.0213 and 6.042 and 7.2 and 9.814 and 9.197 and 8.5449 and 7.4703
30 mpk, Day 10, individual animals (Fig 4C), 30 mg/kg, in pg/mL (unit assumed)
  GIP Levels Over Time: 505.7 and 493.84 and 467.75 and 217.82 and 519.4 and 141.67 and 384.6 and 413 and 296.23 and 81.09
30 mpk, Day 10, individual animals (Fig 4D), 30 mg/kg, in pg/mL (unit assumed)
  PYY Levels Over Time: 253.19 and 328.35 and 279.77 and 271.66 and 270.68 and 232.37 and 216.99 and 227.15 and 181.2 and 198.89
30 mpk, Day 10, individual animals (Fig 5A), 30 mg/kg
  Plasma Insulin Over Time: 1.155 ng/mL and 0.724 ng/mL and 1.551 ng/mL and 0.8718 ng/mL and 1.112 ng/mL and 0.8329 ng/mL and 1.613 ng/mL and 0.7139 ng/mL and 1.088 ng/mL and 1.543 ng/mL
30 mpk, Day 17, individual animals (Fig 3D), 30 mg/kg
  Total Body Weight Change Over Time: 18 (2×) and 8 and 24 and 16 and 0 and 7 and -9 and 10 and 9
30 mpk, Day 17, individual animals (Fig 4B), 30 mg/kg
  Active GLP-1 Levels Over Time: 8.6 and 3.38 and 5.23 and 6.69 and 6.32 and 4.97 and 3.57 and 4.69 and 6.47 and 5.55
30 mpk, Day 17, individual animals (Fig 4C), 30 mg/kg, in pg/mL (unit assumed)
  GIP Levels Over Time: 378.278 and 410.03 and 370.39 and 471.66 and 268.89 and 337.14 and 352.79 and 447.92 and 402.03
30 mpk, Day 17, individual animals (Fig 4D), 30 mg/kg, in pg/mL (unit assumed)
  PYY Levels Over Time: 228.528 and 168.33 and 149.79 and 211.65 and 178.66 and 141.57 and 165.72 and 207.01 and 161.08
30 mpk, Day 17, individual animals (Fig 5A), 30 mg/kg
  Plasma Insulin Over Time: 1.312 ng/mL and 1.435 ng/mL and 1.262 ng/mL and 0.9925 ng/mL and 0.7824 ng/mL and 0.7213 ng/mL and 1.004 ng/mL and 1.148 ng/mL and 1.876 ng/mL and 2.528 ng/mL
30 mpk, Day 23, individual animals (Fig 3D), 30 mg/kg
  Total Body Weight Change Over Time: 24 and 11 and 37 and 25 and 27 and 22 and 16 and -6 and 9 and 12
30 mpk, Day 28, individual animals (Fig 3D), 30 mg/kg
  Total Body Weight Change Over Time: 32 and 14 and 36 and 27 and 34 and 30 and 23 and 3 and 20 and 21
30 mpk, Day 28, individual animals (Fig 4B), 30 mg/kg
  Active GLP-1 Levels Over Time: 4.803 and 5.789 and 8.538 and 7.972 and 5.7178 and 6.58 and 6.497 and 8.013 and 7.134 and 7.267
30 mpk, Day 28, individual animals (Fig 4C), 30 mg/kg, in pg/mL (unit assumed)
  GIP Levels Over Time: 265.13 and 306.48 and 225.82 and 160.64 and 220.15 and 277.09 and 298.29 and 238.76 and 210.52 and 175.96
30 mpk, Day 28, individual animals (Fig 4D), 30 mg/kg, in pg/mL (unit assumed)
  PYY Levels Over Time: 152.15 and 162.1 and 214.06 and 98.83 and 138.17 and 173.94 and 241.37 and 220.84 and 169.14 and 119.76
30 mpk, Day 28, individual animals (Fig 5A), 30 mg/kg
  Plasma Insulin Over Time: 1.27 ng/mL and 1.377 ng/mL and 1.276 ng/mL and 0.4335 ng/mL and 1.675 ng/mL and 1.248 ng/mL and 2.339 ng/mL and 0.9305 ng/mL and 0.8869 ng/mL and 1.165 ng/mL
